Literature values as cited in patent publication US6727243B1, “Compositions comprising cefuroxime axetil” (Biochemie Gesellschaft m.b.H., priority 1998, dated 2004).

Conditions: oral administration; after consumption of food versus fastened state

CO/N=C(\C(=O)N[C@@H]1C(=O)N2C(C(=O)OC(C)OC(C)=O)=C(COC(N)=O)CS[C@H]12)c1ccco1 (stereo partly shown) [cefuroxime axetil, 1-acetoxyethyl ester of cefuroxime]
food effect on bioavailability: exhibit a food effect
